Assay results published in patent publication US7172867B2, “Methods of testing for allergic diseases, and therapeutic agents for treating same” (priority 2002, dated 2007).
Entries after “also recorded” stand apart in the source; their conditions may differ. Read-outs that look alike come from different tables or passages of the source.

What was measured:
TR3 (Nur77) [1] = biological target: T1, TR3 (Nur77) (Homo sapiens, UniProt P22736); assay: Mammalian two hybrid luciferase reporter system for TR3 ligand search (GAL4-TR3 LBD or full length, NIH3T3 cells, with or without RXRα); format: cell-based; conditions: for Full length Nur77-ligand activity RXR(+): full length TR3 fused to GAL4, RXRα added; for Full length Nur77-ligand activity RXR(+) / Full length Nur77-ligand activity RXR(−): NIH3T3 luciferase, ◯ with concentration, X; for Full length Nur77-ligand activity RXR(−): full length TR3 fused to GAL4, without RXRα
T1 construct: expressed in transfected cells; host or cells: NIH3T3

TINUR (Nurr1) [2] = biological target: T2, TINUR (Nurr1) (Homo sapiens, UniProt P43354); assay: Mammalian two hybrid luciferase reporter system for TINUR ligand search (GAL4-TINUR LBD or full length, NIH3T3 cells, with or without RXRα); format: cell-based; conditions: NIH3T3 luciferase, ◯ with concentration, X; for Full length Nurr1-ligand activity RXR(+): full length TINUR fused to GAL4, RXRα added; for Full length Nurr1-ligand activity RXR(−): full length TINUR fused to GAL4, without RXRα
T2 construct: expressed in transfected cells; host or cells: NIH3T3
Target sequence in this assay (P43354 whole entry, the tested form may be a part): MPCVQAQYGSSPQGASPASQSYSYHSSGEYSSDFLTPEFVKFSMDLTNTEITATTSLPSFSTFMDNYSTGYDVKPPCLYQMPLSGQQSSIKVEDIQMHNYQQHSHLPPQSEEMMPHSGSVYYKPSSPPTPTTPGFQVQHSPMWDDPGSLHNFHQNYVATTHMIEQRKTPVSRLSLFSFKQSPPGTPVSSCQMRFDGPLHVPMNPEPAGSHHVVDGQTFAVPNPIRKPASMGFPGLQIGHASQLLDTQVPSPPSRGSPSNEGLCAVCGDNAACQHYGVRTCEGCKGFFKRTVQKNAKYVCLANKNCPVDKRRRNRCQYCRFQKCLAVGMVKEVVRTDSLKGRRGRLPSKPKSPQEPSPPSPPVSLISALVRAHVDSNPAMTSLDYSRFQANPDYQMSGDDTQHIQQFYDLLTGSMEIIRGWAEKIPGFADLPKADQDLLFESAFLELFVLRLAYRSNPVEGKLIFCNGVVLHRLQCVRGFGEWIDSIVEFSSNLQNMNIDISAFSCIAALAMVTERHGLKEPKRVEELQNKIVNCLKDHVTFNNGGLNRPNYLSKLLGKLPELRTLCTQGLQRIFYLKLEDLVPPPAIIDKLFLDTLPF

TINUR (Nurr1) [3] = biological target: T2, TINUR (Nurr1); assay: as above; format: cell-based; conditions: for Nurr1 LBD-ligand activity RXR(+): TINUR LBD fused to GAL4, RXRα added, NIH3T3 luciferase, ◯ with concentration, X
Procedure: (§1) A TR3 or TINUR ligand-binding site is inserted into X, and the full-length retinoic acid X receptor (RXR) α gene is inserted into Y. These constructs are transfected into NIH3T3 cells, and the activity of induced luciferase is measured.
A plasmid comprising the TINUR ligand binding domain sequence inserted into pBIND, and a luciferase reporter plasmid comprising a GAL4 binding site, were co-transfected into NIH3T3 cells. Luciferase activity was measured automatically. At the same time, activity measurement was also carried out by adding retinoic acid X receptor (RXR) α-gene, a transcription factor that forms a heterodimer with TINUR. Low molecular weight substances can also be added to this system to screen using transcriptional enhancement activity.
Like TR3 expression, TINUR expression is enhanced in activated eosinophils. Ligands existing in vivo may exist in sites where nuclear receptors are highly expressed. […] Ligands of the nuclear receptor subfamily are assumed to have structural redundancy. Therefore, derivatives similar to TR3 activator compounds were added, and enhancement of transcriptional activity was investigated.
(§2) Thus, it was implied that prostaglandin A2 functions by acting on the LBD region of the nuclear receptor.
Target sequence in this assay (P43354 360-598): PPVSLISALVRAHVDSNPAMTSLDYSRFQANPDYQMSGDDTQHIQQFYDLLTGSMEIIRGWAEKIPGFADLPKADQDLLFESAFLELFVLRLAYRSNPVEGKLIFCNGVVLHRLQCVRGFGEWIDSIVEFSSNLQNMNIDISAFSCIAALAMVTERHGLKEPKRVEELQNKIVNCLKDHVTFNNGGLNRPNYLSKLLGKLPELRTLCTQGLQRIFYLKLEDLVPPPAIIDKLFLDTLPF

TR3 (Nur77) [4] = biological target: T1, TR3 (Nur77); assay: Mammalian two hybrid luciferase reporter system for TR3 ligand search (GAL4-TR3 LBD or full length, NIH3T3 cells, with or without RXRα); format: cell-based; conditions: for Nur77 LBD-ligand activity RXR(+): TR3 LBD fused to GAL4, RXRα added, NIH3T3 luciferase, ◯ with concentration, X
Procedure: as §1
This was done to facilitate expression of a protein in which the DNA binding domains of TR3 and GAL4 were fused in frame. A plasmid comprising the TR3 ligand binding domain sequence inserted into pBIND, and a luciferase reporter plasmid comprising a GAL4 binding site, were co-transfected into NIH3T3 cells. Luciferase activity was measured automatically. At this time, activity was also measured by adding a retinoic acid X receptor (RXR) α-gene, which is a transcription factor that forms a heterodimer with TR3. By further adding low molecular weight substances to this system, transcriptional enhancement activity can also be used for screening.
TR3 expression is enhanced in activated eosinophils, such as in the peripheral blood of atopic dermatitis patients. Ligands existing in vivo may exist in sites where nuclear receptors are highly expressed. Therefore, small molecule lipid-soluble mediators considered to be produced under such conditions were added to the assay system, and evaluated based on their ability to enhance luciferase activity. […] In this manner, the method established by the present inventors paved the way for the high throughput discovery of native and synthetic TR3 ligands.
as §2

TINUR LBD = biological target: T3, TINUR LBD (Homo sapiens, UniProt P43354); assay: Binding to TINUR GST-LBD by BIAcor S51; conditions: BIAcor S51, comparison with GST as a base
T3 construct: TR3 GST-LBD and TINUR GST-LBD were respectively expressed in E. coli, and then purified; made in house; host or cells: E. coli
T3 sequence (P43354 360-595 limits assumed): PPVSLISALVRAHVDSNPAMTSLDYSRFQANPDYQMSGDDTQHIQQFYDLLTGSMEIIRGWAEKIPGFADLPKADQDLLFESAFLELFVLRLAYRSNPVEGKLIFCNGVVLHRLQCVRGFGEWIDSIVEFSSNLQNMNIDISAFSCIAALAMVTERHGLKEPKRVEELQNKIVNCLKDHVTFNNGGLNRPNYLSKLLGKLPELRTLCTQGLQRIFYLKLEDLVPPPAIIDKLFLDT

TR3 LBD = biological target: T4, TR3 LBD (Homo sapiens, UniProt P22736); assay: Binding to TR3 GST-LBD by BIAcor S51; conditions: BIAcor S51, comparison with GST as a base
T4 construct: TR3 GST-LBD and TINUR GST-LBD were respectively expressed in E. coli, and then purified; made in house; host or cells: E. coli
T4 sequence (P22736 360-595 limits assumed): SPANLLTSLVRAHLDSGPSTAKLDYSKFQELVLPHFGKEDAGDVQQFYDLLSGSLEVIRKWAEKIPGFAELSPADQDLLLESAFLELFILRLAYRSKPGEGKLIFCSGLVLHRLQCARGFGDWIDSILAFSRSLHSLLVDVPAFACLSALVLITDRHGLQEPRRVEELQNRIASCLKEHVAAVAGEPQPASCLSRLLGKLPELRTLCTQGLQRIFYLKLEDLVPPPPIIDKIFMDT
Description: In the present invention, a biosensor utilizing the phenomenon of surface plasmon resonance may also be used to detect or measure the bound compound. […] Therefore, biosensors such as BIACORE can be used to evaluate binding between the TR3 or TINUR protein and a test compound.

TINUR (Nurr1) [5] = assay: Mammalian two hybrid luciferase reporter system for TINUR ligand search (GAL4-TINUR LBD or full length, NIH3T3 cells, with or without RXRα); format: cell-based, human; conditions: LBD deletion mutant (ΔLBD)
[6] = system: TR3 expression in peripheral blood eosinophils; assay: TR3 expression induction in cultured peripheral blood eosinophils; format: cell-based, human; conditions: cultured peripheral blood eosinophils from healthy subjects, one to three-hour treatment

Molecule: CCCCC[C@H](O)/C=C/[C@H]1C=CC(=O)[C@H]1CCCCCCC(=O)O [8-isoProstaglandin A1]
- Full length Nur77-ligand activity RXR(+) (TR3 (Nur77) [1]): ◯ 3 μM
- Full length Nurr1-ligand activity RXR(+) (TINUR (Nurr1) [2]): ◯10 μM
- activity of activating TINUR transcription (luciferase reporter), in words (TINUR (Nurr1) [3]): ligand activators; also recorded: found to comprise the activity of activating TINUR transcription
- Nurr1 LBD-ligand activity RXR(+) (TINUR (Nurr1) [3]): ◯10 μM
- activity of enhancing the transcription-activating ability of TR3 (luciferase reporter), in words (TR3 (Nur77) [4]): ligand activators for TR3
- Nur77 LBD-ligand activity RXR(+) (TR3 (Nur77) [4]): ◯10 μM

Molecule: CCCCC[C@@](C)(O)/C=C/[C@H]1C=CC(=O)[C@@H]1C/C=C\CCCC(=O)O [15(R)-15-methylProstaglandin A2]
- Full length Nur77-ligand activity RXR(+) (TR3 (Nur77) [1]): ◯10 μM
- Full length Nur77-ligand activity RXR(−) (TR3 (Nur77) [1]): ◯10 μM
- Full length Nurr1-ligand activity RXR(+) (TINUR (Nurr1) [2]): ◯10 μM
- activity of activating TINUR transcription (luciferase reporter), in words (TINUR (Nurr1) [3]): ligand activators; also recorded: found to comprise the activity of activating TINUR transcription
- Nurr1 LBD-ligand activity RXR(+) (TINUR (Nurr1) [3]): ◯10 μM
- activity of enhancing the transcription-activating ability of TR3 (luciferase reporter), in words (TR3 (Nur77) [4]): ligand activators for TR3; also recorded: the activity of enhancing the transcription-activating ability of TR3 was found
- Nur77 LBD-ligand activity RXR(+) (TR3 (Nur77) [4]): ◯10 μM

Molecule: CCCCC/C=C/C=C1/C=CC(=O)[C@@H]1CCCCCCC(=O)O [15-deoxy-Δ^12.14_Prostaglandin A1]
- Full length Nur77-ligand activity RXR(+) (TR3 (Nur77) [1]): ◯30 μM
- activity of enhancing the transcription-activating ability of TR3 (luciferase reporter), in words (TR3 (Nur77) [4]): ligand activators for TR3
- Nur77 LBD-ligand activity RXR(+) (TR3 (Nur77) [4]): ◯30 μM

Molecule: CCCCC/C=C/C=C1/C(=O)C=C[C@@H]1C/C=C\CCCC(=O)O [15-deoxy-Δ^12.14_Prostaglandin J2]
- Full length Nur77-ligand activity RXR(+) (TR3 (Nur77) [1]): ◯10 μM
- Full length Nur77-ligand activity RXR(−) (TR3 (Nur77) [1]): ◯10 μM
- Nurr1 LBD-ligand activity RXR(+) (TINUR (Nurr1) [3]): ◯10 μM
- activity of activating TINUR transcription (luciferase reporter), in words (TINUR (Nurr1) [3]; listed as 15-deoxy-delta 12,14-prostaglandin J2): ligand activators; also recorded: found to comprise the activity of activating TINUR transcription
- activity of enhancing the transcription-activating ability of TR3 (luciferase reporter), in words (TR3 (Nur77) [4]): ligand activators for TR3

Molecule: CCCCC[C@@H](O)/C=C/[C@H]1C=CC(=O)[C@@H]1CCCCCCC(=O)O [15-epiProstaglandin A1]
- Full length Nur77-ligand activity RXR(+) (TR3 (Nur77) [1]): ◯10 μM
- Full length Nur77-ligand activity RXR(−) (TR3 (Nur77) [1]): ◯10 μM
- activity of activating TINUR transcription (luciferase reporter), in words (TINUR (Nurr1) [3]): ligand activators; also recorded: found to comprise the activity of activating TINUR transcription
- Nurr1 LBD-ligand activity RXR(+) (TINUR (Nurr1) [3]): ◯10 μM
- activity of enhancing the transcription-activating ability of TR3 (luciferase reporter), in words (TR3 (Nur77) [4]): ligand activators for TR3; also recorded: the activity of enhancing the transcription-activating ability of TR3 was found
- Nur77 LBD-ligand activity RXR(+) (TR3 (Nur77) [4]): ◯10 μM

Molecule: O=C(O)CCC/C=C\C[C@H]1C(=O)C=C[C@@H]1/C=C/[C@@H](O)COc1ccccc1 [16-phenoxytetranorProstaglandin A2]
- Full length Nur77-ligand activity RXR(−) (TR3 (Nur77) [1]): ◯30 μM
- Full length Nurr1-ligand activity RXR(+) (TINUR (Nurr1) [2]): ◯30 μM
- Full length Nurr1-ligand activity RXR(−) (TINUR (Nurr1) [2]): ◯30 μM
- activity of activating TINUR transcription (luciferase reporter), in words (TINUR (Nurr1) [3]): ligand activators; also recorded: found to comprise the activity of activating TINUR transcription
- Nurr1 LBD-ligand activity RXR(+) (TINUR (Nurr1) [3]): ◯10 μM
- activity of enhancing the transcription-activating ability of TR3 (luciferase reporter), in words (TR3 (Nur77) [4]): ligand activators for TR3

Molecule: O=C(O)CCC/C=C\C[C@H]1C(=O)C=C[C@@H]1/C=C/[C@@H](O)CCc1ccccc1 [17-phenyl trinorProstaglandin A2]
- Full length Nur77-ligand activity RXR(+) (TR3 (Nur77) [1]): ◯10 μM
- Full length Nurr1-ligand activity RXR(+) (TINUR (Nurr1) [2]): ◯10 μM
- activity of activating TINUR transcription (luciferase reporter), in words (TINUR (Nurr1) [3]): ligand activators; also recorded: found to comprise the activity of activating TINUR transcription
- Nurr1 LBD-ligand activity RXR(+) (TINUR (Nurr1) [3]): ◯10 μM
- activity of enhancing the transcription-activating ability of TR3 (luciferase reporter), in words (TR3 (Nur77) [4]): ligand activators for TR3
- Nur77 LBD-ligand activity RXR(+) (TR3 (Nur77) [4]): ◯10 μM

Molecule: CCCCC[C@H](O)/C=C/[C@H]1C=CC(=O)[C@@H]1CCCCCCC(=O)O [Prostaglandin A1]
- Full length Nur77-ligand activity RXR(+) (TR3 (Nur77) [1]): ◯10 μM
- Full length Nur77-ligand activity RXR(−) (TR3 (Nur77) [1]): ◯10 μM
- Full length Nurr1-ligand activity RXR(+) (TINUR (Nurr1) [2]): ◯10 μM
- Full length Nurr1-ligand activity RXR(−) (TINUR (Nurr1) [2]): ◯10 μM
- binding to the LBD of TINUR (TINUR LBD): detected
- activity of activating TINUR transcription (luciferase reporter), in words (TINUR (Nurr1) [3]): ligand activators; also recorded: found to comprise the activity of activating TINUR transcription
- Nurr1 LBD-ligand activity RXR(+) (TINUR (Nurr1) [3]): ◯10 μM
- activity of enhancing the transcription-activating ability of TR3 (luciferase reporter), in words (TR3 (Nur77) [4]): ligand activators for TR3; also recorded: the activity of enhancing the transcription-activating ability of TR3 was found
- Nur77 LBD-ligand activity RXR(+) (TR3 (Nur77) [4]): ◯10 μM
- binding to the LBD of TR3 (TR3 LBD): detected

Molecule: CCCCC[C@H](O)/C=C/[C@H]1C=CC(=O)[C@@H]1C/C=C\CCCC(=O)O [Prostaglandin A2]
- transcriptional activity with TR3 gene completely lacking an LBD region (TR3 (Nur77) [1]; LBD deletion mutant (ΔLBD)): suppressed
- Full length Nur77-ligand activity RXR(+) (TR3 (Nur77) [1]): ◯10 μM
- Full length Nur77-ligand activity RXR(−) (TR3 (Nur77) [1]): ◯10 μM
- transcriptional activity with TINUR gene completely lacking an LBD region (TINUR (Nurr1) [5]): suppressed
- Full length Nurr1-ligand activity RXR(+) (TINUR (Nurr1) [2]): ◯10 μM
- Full length Nurr1-ligand activity RXR(−) (TINUR (Nurr1) [2]): ◯10 μM
- binding to the LBD of TINUR (TINUR LBD): detected
- activity of activating TINUR transcription (luciferase reporter), in words (TINUR (Nurr1) [3]): ligand activators; also recorded: found to comprise the activity of activating TINUR transcription
- Nurr1 LBD-ligand activity RXR(+) (TINUR (Nurr1) [3]): ◯10 μM
- activity of enhancing the transcription-activating ability of TR3 (luciferase reporter), in words (TR3 (Nur77) [4]): ligand activators for TR3; also recorded: the activity of enhancing the transcription-activating ability of TR3 was found
- Nur77 LBD-ligand activity RXR(+) (TR3 (Nur77) [4]): ◯10 μM
- binding to the LBD of TR3 (TR3 LBD): detected

Molecule: CCCCC[C@H](O)C/C=C1/C(=O)C=C[C@@H]1C/C=C\CCCC(=O)O [Δ12-Prostaglandin J2]
- activity of enhancing the transcription-activating ability of TR3 (luciferase reporter), in words (TR3 (Nur77) [4]): the activity of enhancing the transcription-activating ability of TR3 was found

Molecule: IL-5: cytokine used for eosinophil activation
- TR3 induction [6]: did not lead to TR3 induction

B1: IL-4: cytokine used for eosinophil activation (protein, UniProt P05112 25-153, looked up)
Interleukin-4: HKCDITLQEIIKTLNSLTEQKTLCTELTVTDIFAASKNTTEKETFCRAATVLRQFYSHHEKDTRCLGATAQQFHRHKQLIRFLKRLDRNLWGLAGLNSCPVKEANQSTLENFLERLKTIMREKYSKCSS
- TR3 induction [6]: did not lead to TR3 induction
